Measurements reported in patent US20250011881A1, “MYC-HSF1 DUAL AMPLIFICATION AS A BIOMARKER FOR CANCER TREATMENT” (The Trustees of Indiana University, priority 2023, published 2025).
Where “and” joins values, the source holds several entries; their conditions need not be identical. Equal values may be shown once.

Tests used:
[1] = tested on: ovarian cancer cells with (OVCAR8, OVCAR4) or without (OVSAHO, CAOV3) MYC-HSF1 amplification; assay: Epigenetic inhibitor drug screen, cell viability (Cell Titer Blue); assay type: cell-based; details: 10 uM, 48 hrs, average relative cell viability (vs 1% DMSO) of non-amplified cells (OVSAHO, CAOV3) minus that of MYC-HSF1 amplified cells (OVCAR8, OVCAR4), positive = greater response in amplified cells, 10 µM
[2] = tested on: HSF1 and MYC target genes in OVCAR8; assay: RT-qPCR of HSF1 and MYC target genes after entinostat; assay type: cell-based; details: OVCAR8, 24 hrs
Protocol: FIG. 6B is a bar graph depicting mRNA relative fold change in OVCAR8 cells treated with entinostat at the indicated doses for 24 hours. Total RNA from the cells was subjected to RT-qPCR or the indicated transcripts.
Results of this screen indicated 45 of the top 54 hits were compounds that targeted histone deacetylases (HDACs). (Table 1). To test the effect of HDAC inhibitors on cell lines having dual copy number gain in both MYC and HSF1, we treated OVCAR8 (positive for MYC-HSF1 amplification) for 24 hrs with an HDAC inhibitor, etinostat. Total RNA from treated cells was subjected to RTqPCR. To conduct the RTqPCR, RNA was extracted from cells using an RNA isolation kit with DNAse treatment (Zymo). RNA was subjected to reverse transcription using RT Master Mix (Applied Biosystems). qPCR was performed with SYBR Green Master Mix (Applied Biosystems) using a QuantStudio3 (Applied Biosystems). Experiments were performed in biological triplicate and analyzed using the […].

[3] = tested on: MYC and HSF1 protein in OVCAR8 cells; assay: Immunoblot of MYC and HSF1 after entinostat; assay type: cell-based; details: OVCAR8, 24 hours
Protocol: FIG. 6C and FIG. 6D are immunoblots of OVCAR8 cells treated with entinostat at the indicated doses for 24 hours. Total protein from the cells was subjected to immunoblotting with the indicated antibodies.
Immunoblotting and co-immunoprecipitation was performed as described above. Antibodies for immunoblotting and immunoprecipitation included MYC (CST), HSF1 (CST), GAPDH (CST). […] Through the innovative method of screening potential therapeutics against cells having dual amplification of MYC and HSF1, Applicant was able to identify potential therapeutic targets, HDAC inhibitors, and therapeutics having increased efficacy against these cancer cells.

[4] = tested on: cell lines with dual amplification (OVCAR8, SNU119, OVCAR4, and COV362); assay: Volasertib IC50, cell viability, MYC-HSF1 dual amplified cell lines; assay type: cell-based
Protocol: (§1) PLK1 is an active therapeutic target with several compounds targeting this kinase inPLK1 inhibitor that has shown promise as an effective cancer therapy in early phase clinical trials (Rudolph et al. Clin Cancer Res 2009; 15:3094-102;Pujade-Lauraine et al. J Clin Oncol 2016;34:706-13; Xie et al. Am J Cancer Res 2015;5:3548-59). […] To assess whether a PLK1 inhibitor has specificity for MYC-HSFIdual-amplified ovarian cancer cells, the IC50 for volasertib was assessed in cell lines with dual amplification (OVCAR8, SNU119, OVCAR4, and COV362) and in cell lines without dual amplification (OVSAHO, CAOV3, PEO1, OVCAR3).
(§2) The effectiveness of volasertib on MYC-HSF1 dual amplified cancer cells was also analyzed in several cell growth models. […] Cell viability assays were performed with Cell Titer Blue (Promega) as we previously described (Carpenter et al. Oncotarget 2017;8:73947-63). Clonogenic growth assays were performed by seeding <1000 cells into 6-well plates and staining with crystal violet after 7 days of growth. Colonies were quantified using FIJI.

[5] = tested on: cell lines without dual amplification (OVSAHO, CAOV3, PEO1, OVCAR3); assay: Volasertib IC50, cell viability, non-amplified cell lines; assay type: cell-based; details: average of OVSAHO, read-out: IC50 in non-amplified cells
Protocol: as §1, §2

[6] = tested on: MYC and HSF1 protein in OVCAR8 cells; assay: Immunoblot time course of MYC and HSF1 protein after volasertib; assay type: cell-based; details: OVCAR8, volasertib 1 nM, 0 to 18 hours
Protocol: (§3) Considering PLK1 phosphorylation previously indicated affects the protein stability of MYC and HSF1, it was tested whether volasertib affects MYC or HSF1 protein levels. A time course study was performed where samples were treated with volasertib for time ranges of 0 to 18hours. […] Similarly, the effect of volasertib was tested on the activity of HSF1 using an HSE luciferase reporter.
Immunoblotting and Immunoprecipitation: Immunoblotting and co-immunoprecipitation was performed as we have previously described (Lu et al., bioRxiv 2020:2020.08.31.275909). Antibodies for immunoblotting and immunoprecipitation included MYC (CST), HSF1 (CST), β-actin (CST), GAPDH (CST), FLAG (Sigma), and p-HSF1 (S326) (Abcam).

[7] = tested on: HSF1 activity in OVCAR8 cells; assay: HSE luciferase reporter assay; assay type: cell-based; details: OVCAR8, volasertib 1 nM, increasing time of treatment
Protocol: FIG. 4E is a bar graph representing OVCAR8 cells subjected to HSE luciferase assay with treatment of volasertib (1 nM) for the indicated times.
as §3
Luciferase Reporter Assays: Luciferase reporter assays were performed as we previously described (Lu et al. bioRxiv 2020:2020.08.31.275909). The HSF1 activity reporter contains multiple heat shock element (HSE) motifs driving firefly luciferase. Experiments were performed with co-transfection of a constitutively active renilla reporter. Analysis was completed by dividing firefly activity by renilla activity.

[8] = tested on: MYC-HSF1 dual amplified cells (OVCAR8, OVCAR4, SNU119); assay: Clonogenic growth assay; assay type: cell-based; details: 7 days, crystal violet
Protocol: FIG. 5A depicts bar graphs showing clonogenic growth observed for OVCAR8, OVCAR4 and SNU119 cell lines subjected to the indicated dose of volasertib (BI-6727). Control cells were subjected to 1% DMSO instead of volasertib. Colonies were grown for 7 days prior to staining with crystal violet and quantification was completed with FIJI software.
as §2

[9] = tested on: OVCAR8 (MYC-HSF1 co-amplified) cells; assay: Tumor spheroid growth, co-amplified cells; assay type: cell-based; details: OVCAR8, 7 days
Protocol: FIG. 5B and FIG. 5C represent OVCAR8 (MYC-HSF1 co-amplified) and CAOV3 (non-amplified) cells subjected to tumor spheroid growth in the presence or absence of volasertib at the indicated doses. Spheroids were quantified by manual counting. The impact volasertib on spheroid growth in the two different cell lines is shown photographically (FIG. 5B) and graphically (FIG. 5C).
Ovarian cancer cells (1000-2000) were seeded into 24-well ultra-low attachment plates (Corning) and grown in serum-free spheroid media as we previously described (Wang et al., Mol Cancer Ther 2021). Spheroids were grown in the presence or absence of volasertib for 7 days. Spheroids were quantified by manual counting.

[10] = tested on: OVCAR8 cells in the flank of nude mice; assay: OVCAR8 flank tumor growth in nude mice; assay type: in vivo; details: 15 or 20 mg/kg twice per week for five weeks
Protocol: (§4) FIG. 5D represents OVCAR8 cells (5e5) grown in the flank of nude mice until a volume between 50-100 mm^3 were achieved. Mice were then randomized to receive either vehicle, 15mg/kg, or 20 mg/kg volasertib twice per week. Tumor volume was measured with calipers (FIG. 5D) and body weight was measured (FIG. 5E) throughout the study.
(§5) Lastly, we evaluated the efficacy of the PLK1 inhibitor, volasertib, on tumor growth in vivo. OVCAR8 cells (5e5) were injected into the flank of nude mice and tumors were allowed to develop until 50-100 mm^3. Mice then received either vehicle (PBS) or 15 or 20 mg/kg volasertib twice per week for five weeks. Body weight and tumor volume were measured twice per week.

[11] = Body weight of tumor-bearing nude mice; assay type: in vivo; details: 15 or 20 mg/kg twice per week for five weeks
Protocol: as §4, §5

ovarian cancer patients = details: cited from earlier work
[12] = single agent, ovarian cancer patients

SMILES | Non Amp - AMP (POC) 10 uM ([1]; listed as Entinostat (MS-275, SNDX-275)) [POC] | Non Amp - AMP (POC) 10 uM ([1]; listed as MS-275 (entinostat)) [POC] | levels of HSF1 and MYC target genes (mRNA) [2] | protein levels of MYC and HSF1 [3] | IC50 ([4]; average of OVCAR8, SNU119, OVCAR4, COV362, read-out: IC50 for volasertib in MYC-HSF1 dual amplified cells) [µM] | fold difference of IC50, non-amplified vs MYC-HSF1 dual amplified cells ([4]; enhanced efficacy in dual amplified ovarian cancer cells) | IC50 [5] [µM] | MYC and HSF1 protein levels [6] | HSF1 activity (HSE luciferase reporter) [7] | clonogenic growth [8] | spheroid growth, MYC-HSF1 dual amplified cells [9] | tumor growth in vivo [10] | body weight [11] | toxicity and safety for use in humans (ovarian cancer patients; early phase clinical trials) | 24-week disease control rate (ovarian cancer patients; [12]) [%] | patients with partial responses (ovarian cancer patients; [12]) [%] | patients with progression-free survival for more than one year (ovarian cancer patients; single agent, none in patients receiving cytotoxic chemotherapy) [%]
Nc1ccccc1NC(=O)c1ccc(CNC(=O)OCc2cccnc2)cc1 [Entinostat] | 52.31 | 65.06 | significantly reduced levels of HSF1 and MYC target genes | reduced protein levels of both MYC and HSF1 | – | – | – | – | – | – | – | – | – | – | – | – | –
CC[C@@H]1C(=O)N(C)c2cnc(Nc3ccc(C(=O)N[C@H]4CC[C@H](N5CCN(CC6CC6)CC5)CC4)cc3OC)nc2N1C(C)C [volasertib] | – | – | – | – | 0.033 | > 200 fold and 200 fold | 7.8 | loss of MYC and HSF1 protein after 3hours of volasertib exposure | increasing inhibition of HSF1 activity | strong inhibition of clonogenic growth | inhibit spheroid growth | strongly regress tumor growth | no change in body weight | favorable toxicity and safety | 30 | 13 | 11
